Data reported in patent publication US20080070971A1, “Medical Use of Bilirubin and its Structural Analogues” (priority 2006, published 2008).
Like-named read-outs stand apart in the source and are kept apart here.

What was measured:
UDPGT1A1 = biological target: T1, UDPGT1A1 (Homo sapiens, UniProt P22309); experiment: Inhibition of bilirubin glucuronidation by UDPGT; assay type: biochemical
T1 construct: purchased SigmaAldrich U7254
T1 sequence (P22309 26-533): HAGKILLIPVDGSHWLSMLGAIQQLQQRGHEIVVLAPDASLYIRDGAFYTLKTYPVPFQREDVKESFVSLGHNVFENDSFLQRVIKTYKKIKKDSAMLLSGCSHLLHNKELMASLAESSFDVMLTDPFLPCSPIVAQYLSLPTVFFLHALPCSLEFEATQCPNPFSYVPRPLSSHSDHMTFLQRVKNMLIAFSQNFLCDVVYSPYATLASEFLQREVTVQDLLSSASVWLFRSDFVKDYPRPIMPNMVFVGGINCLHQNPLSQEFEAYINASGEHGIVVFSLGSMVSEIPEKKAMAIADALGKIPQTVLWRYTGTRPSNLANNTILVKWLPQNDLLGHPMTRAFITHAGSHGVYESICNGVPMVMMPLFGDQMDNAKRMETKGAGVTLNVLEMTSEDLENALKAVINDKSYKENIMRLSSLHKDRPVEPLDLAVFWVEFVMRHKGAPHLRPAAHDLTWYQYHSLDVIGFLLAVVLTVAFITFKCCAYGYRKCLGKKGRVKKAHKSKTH
Excerpt: UDP-glucuronosyltransferase 1A1 isozenzyme (Cat. #U7254), uridine-5′-diphosphoglucuronic acid (UDPGA, #U5625), bilirubin (B), naringenin (N5893), octyl gallate (#48700) and quercetin (Q0125) were purchased from SigmaAldrich (St. Louis, Mo.). Bilirubin dimethyl ester (#B612-9), biliverdin dimethyl ester (#B610-9), biliverdin hydrocholoride (#B655-9), mesobilirubin (#M588-9), urobilin hydrochloride (#U590-1), and stercobilin hydrochloride (#S594-9) were purchased from Frontier Scientific Inc. (Logan, Utah).
The enzyme activity assay method was based on those of Adlard and Lathe (Biochem. J., 1970, 119:437-445). Incubation mixtures (total vol. 1.25 ml, pH 7.9) were prepared in tubes kept in ice and had the following composition: bilirubin (0.1 mM), UDP-glucuronic acid (0.25 mM), serum (5.8%, v/v), Mg2+ (5.0 mM), microsomal preparation (0.5-1.5 mg of protein), 10 mM tris-0.14 M KCl (pH 8.0), and 10% (v/v) dimethylsulphoxide. Incubation (10 min, 37° C.) was carried out with shaking (100 cycles/min). After incubation, tubes were placed in ice-water (5 min) and direct-reacting bilirubin was determined. All incubations were done in duplicate. Enzyme activity was expressed as μg of bilirubin conjugated/h per mg of protein. Differences from controls of more than 10% were regarded as significant.

HMG-CoA reductase = biological target: T2, HMG-CoA reductase (Homo sapiens, UniProt P04035); experiment: HMG-CoA reductase assay in liver microsomes; assay type: biochemical; details: moderately high concentrations; 30 mg/L (FIG. 6)
T2 construct: from tissue; host or cells: liver microsomes
T2 sequence (P04035 1-888): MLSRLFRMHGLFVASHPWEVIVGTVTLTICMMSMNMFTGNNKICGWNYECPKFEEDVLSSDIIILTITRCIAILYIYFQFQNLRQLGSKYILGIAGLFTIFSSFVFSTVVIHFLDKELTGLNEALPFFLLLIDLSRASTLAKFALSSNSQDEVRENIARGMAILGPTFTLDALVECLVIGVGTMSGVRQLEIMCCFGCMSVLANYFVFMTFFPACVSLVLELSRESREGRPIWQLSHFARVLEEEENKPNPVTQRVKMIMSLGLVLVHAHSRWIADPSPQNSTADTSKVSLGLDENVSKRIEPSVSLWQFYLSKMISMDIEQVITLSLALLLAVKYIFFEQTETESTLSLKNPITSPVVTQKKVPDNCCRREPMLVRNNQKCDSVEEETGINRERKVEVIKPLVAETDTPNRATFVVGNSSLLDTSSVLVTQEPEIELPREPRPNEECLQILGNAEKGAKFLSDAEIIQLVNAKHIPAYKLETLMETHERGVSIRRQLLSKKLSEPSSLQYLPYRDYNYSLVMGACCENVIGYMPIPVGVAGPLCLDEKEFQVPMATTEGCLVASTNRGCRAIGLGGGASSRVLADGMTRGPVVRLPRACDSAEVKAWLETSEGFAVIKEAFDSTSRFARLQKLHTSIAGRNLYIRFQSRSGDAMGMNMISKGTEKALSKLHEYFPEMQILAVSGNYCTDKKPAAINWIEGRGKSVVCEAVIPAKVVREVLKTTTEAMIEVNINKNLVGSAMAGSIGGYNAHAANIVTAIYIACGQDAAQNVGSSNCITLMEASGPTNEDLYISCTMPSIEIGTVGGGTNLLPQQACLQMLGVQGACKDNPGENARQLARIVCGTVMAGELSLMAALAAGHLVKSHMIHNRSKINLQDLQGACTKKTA
Procedure: Liver microsomes, which are used to investigate cholesterol metabolism, were prepared as follows. Liver was homogenized in 50 mM Tris HCl buffer (pH 7.4), containing 0.3 M sucrose, 10 mM DTT, and 10 mM EDTA. The homogenate was centrifuged at 20,000×g for 15 min, and the supernatant was centrifuged at 100,000×g for 60 min. The resulting microsomal fraction was suspended in 3 ml of 0.1 M potassium phosphate buffer (pH 7.4), containing 1 mM EDTA and 5 mM DTT. Aliquots were immediately frozen in liquid nitrogen and stored at −20° C. until analysis.
Assay of HMG-CoA reductase. Microsomal suspensions of […], containing 5 mg protein, were preincubated for 5 min at 37° C. with […] of 0.1 M potassium phosphate buffer (pH 7.4), containing 1 mM EDTA and 12 mM glucose-6-phosphate. The assay was initiated by adding […] of cofactor-substrate solution (0.1 mM HMG-CoA, 3 mM MADPH, and 2 U/ml glucose-6-phosphate dehydrogenase). The incubation was performed at 37+ C. for 30 min and was terminated by the addition of […] of 1 M MaOH. After lactonization, the mevalonolactone was separated by thin layer chromatography. The eluate, which contained mevalonolactone, was collected in a scintillation vial. The radioactivity was then counted in a Packard 3320 scintillation spectrometer.

cyclooxygenase (COX) = experiment: Cyclooxygenase (COX) inhibition; assay type: biochemical, human; details: concentration of 10 mg/L (FIG. 4)
Procedure: The activity of COX was determined by the procedure described in Assay Design's Enzyme Immunometric Assay (EIA) kit (Assay Design Inc., TiterZyme EIA cat.#900-094). Briefly, the kit uses a monoclonal antibody to human COX-II immobilized on a microtiter plate to bind the human COX in the standard or sample. After a short incubation the excess standard or sample is washed out and a rabbit polyclonal antibody to human COX labeled with the enzyme. Horseradish peroxidase is added. This labeled antibody binds to the human COX captured on the plate. After a short incubation the excess labeled antibody is washed out and substrate is added. The substrate reacts with the labeled antibody bound to the human COX captured on the plate. After a short incubation, the enzyme reaction is stopped and the color generated is read at 450 nm. The measured optical density is directly proportional to the concentration of human COX.
Purified cyclooxygenases (COX) were obtained from Kayman Chemical Company and used to examine the inhibitory effect of bilirubin with arachidonic acid as the substrate. High purity of bilirubin (SigmaAldrich #B4126), biliverdin (Frontier Scientific Inc., Cat. B655-9) and hemin (SigmaAldrich, #51280) were used as received.

[1] = Table 4, bilirubin 0.1 mM as substrate, read-out: Apparent Ki
[2] = read-out: inhibition constant (Ki)

| Ki (UDPGT1A1; [1]) [µM] | Molecule | further results |
| --- | --- | --- |
| 1.5 | C=CC1=C(C)/C(=C/c2[nH]c(Cc3[nH]c(/C=C4\NC(=O)C(C=C)=C4C)c(C)c3CCC(=O)O)c(CCC(=O)O)c2C)NC1=O [Bilirubin IIIα] |  |
| 1.7 | C=CC1=C(C)C(=O)N/C1=C\c1[nH]c(Cc2[nH]c(/C=C3\NC(=O)C(C)=C3C=C)c(C)c2CCC(=O)O)c(CCC(=O)O)c1C [Bilirubin XIIIα] |  |
| 1.3 | C=CC1=C(C)C(OC)N/C1=C\c1[nH]c(Cc2[nH]c(/C=C3\NC(OC)C(C=C)=C3C)c(C)c2CCC(=O)O)c(CCC(=O)O)c1C (stereo not shown) [DimethoxybilirubinIXα] | Ki (UDPGT1A1; [2]): ~1 µM |
|  | C=CC1=C(C)c2cc3[n-]c(cc4[n-]c(cc5nc(cc1n2)C(C)=C5C=C)c(C)c4CCC(=O)O)c(CCC(=O)O)c3C.O.[Fe+2] [Hematin, reference compound] | inhibition of HMG-CoA reductase activity (comparison) (HMG-CoA reductase): strongly inhibit |
| 2.3 | CCC1=C(C)/C(=C/c2[nH]c(Cc3[nH]c(/C=C4\NC(=O)C(C)=C4CC)c(C)c3CCC(=O)O)c(CCC(=O)O)c2C)NC1=O [Mesobilirubin IXα, 3,18-diethyl-2,7,13,17-tetramethyl-1,19-dioxo-1,19,22,24-tetrahydro-21H-biline-8,12-dipropanoic acid] |  |
| 7.6 | CCCCCCCCOC(=O)c1cc(O)c(O)c(O)c1 [Octyl gallate ester] |  |
|  | hemin | reducing COX activity (comparison) (cyclooxygenase (COX)): effective in reducing COX activity |

| Molecule | Ki (UDPGT1A1; [1]) [µM] | further results |
| --- | --- | --- |
| C=CC1=C(C)/C(=C/C2=NC(=C/c3[nH]c(/C=C4\NC(=O)C(C)=C4C=C)c(C)c3CCC(=O)O)/C(CCC(=O)O)=C2C)NC1=O [biliverdin, 2,7,13,17-tetramethyl-1,19-dioxo-3,18-divinyl-1,19,22,24-tetrahydro-21H-biline-8,12-dipropanoic acid] | 19.9 | inhibition of HMG-CoA reductase activity (comparison) (HMG-CoA reductase): strongly inhibit |
| (±)-2,3-Dihydro-5,7-dihydroxy-2-(4-hydroxyphenyl)-4H-1-benzopyran-4-one; 4′,5,7-Trihydroxyflavanone [Naringenin] | 4.8 | Ki (UDPGT1A1; [2]): 5 µM; IC50 (UDPGT1A1; under the testing conditions): ~16 µM |
